Laboratory results taken from patent US10954232B2, “Pyrazole derivative as ALK5 inhibitor and uses thereof” (HANMI PHARMACEUTICAL CO., LTD., priority 2016, dated 2021).

target: T1, ALK5 kinase (Homo sapiens, UniProt P36897); assay: Activity inhibition test on ALK5 enzyme (LanthaScreen Eu binding kinase assay); settings: kinase tracer 178, 60 minutes at room temperature
T1 construct: GST; purchased Thermo Fisher Scientific Solutions
T1 sequence (P36897 34-503): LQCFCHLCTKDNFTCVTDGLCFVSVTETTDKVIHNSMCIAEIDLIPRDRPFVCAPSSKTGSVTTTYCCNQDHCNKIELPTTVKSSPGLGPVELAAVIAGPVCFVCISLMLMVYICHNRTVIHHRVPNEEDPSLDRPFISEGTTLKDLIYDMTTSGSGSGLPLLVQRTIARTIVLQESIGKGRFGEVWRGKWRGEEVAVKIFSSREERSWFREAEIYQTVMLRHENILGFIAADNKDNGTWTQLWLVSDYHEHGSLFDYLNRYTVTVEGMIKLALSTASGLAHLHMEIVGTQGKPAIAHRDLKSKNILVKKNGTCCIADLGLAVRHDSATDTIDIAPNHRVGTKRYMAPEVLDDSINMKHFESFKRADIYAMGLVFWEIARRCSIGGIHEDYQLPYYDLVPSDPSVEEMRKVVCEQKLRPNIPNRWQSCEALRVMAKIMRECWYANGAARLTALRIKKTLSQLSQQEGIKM
Outline: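 TR-FRET tracer-displacement format with final 5 nM ALK5, 2 nM Eu-GST antibody and 10 nM kinase tracer 178. Compound dilution series ran 1 μM–0.0001 μM, incubated 60 min at room temperature with stirring. Fluorescence was read ([…]), and IC50 came from percent inhibition versus control.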

SMILES | IC50 [nM]
Cc1cccc(-n2nc(C(=O)NCc3ccccc3Cl)cc2-c2ccc3nccnc3c2)n1 [Example 201, N-(2-chlorobenzyl)-1-(6-methylpyridin-2-yl)-5-(quinoxalin-6-yl)-1H-pyrazole-3-carboxyamide] | 10 to 100
CN(C)c1ccc(NC(=O)c2cc(-c3ccc4nccnc4c3)n(-c3cc(Cl)ccc3F)n2)cc1 [Example 204, 1-(5-chloro-2-fluorophenyl)-N-(4-(dimethylamino)phenyl)-5-(quinoxalin-6-yl)-1H-pyrazole-3-carboxyamide] | ~100
CN(C)c1ccc(NC(=O)c2cc(-c3ccc4nccnc4c3)n(-c3cccc(C(F)(F)F)n3)n2)cc1 [Example 206] | > 100
COc1ccc(NC(=O)c2cc(-c3ccc4nccnc4c3)n(-c3cccc(Br)n3)n2)cc1 [Example 207, 1-(6-bromopyridin-2-yl)-N-(4-methoxyphenyl)-5-(quinoxalin-6-yl)-1H-pyrazole-3-carboxyamide] | 10 to 100
CN(C)c1ccc(NC(=O)c2cc(-c3ccc4nccnc4c3)n(-c3cccc(Br)n3)n2)cc1 [Example 208, 1-(6-bromopyridin-2-yl)-N-(4-(dimethylamino)phenyl)-5-(quinoxalin-6-yl)-1H-pyrazole-3-carboxyamide] | 10 to 100
Cc1cccc(-n2nc(C(=O)Nc3ccc(S(C)(=O)=O)cc3)cc2-c2ccnc3ccccc23)n1 [Example 211, 1-(6-methylpyridin-2-yl)-N-(4-(methylsulfonyl)phenyl)-5-(quinolin-4-yl)-1H-pyrazole-3-carboxyamide] | < 10
COc1ccc(NC(=O)c2cc(-c3ccnc4ccccc34)n(-c3cccc(C)n3)n2)cn1 [Example 212, N-(6-methoxypyridin-3-yl)-1-(6-methylpyridin-2-yl)-5-(quinolin-4-yl)-1H-pyrazole-3-carboxyamide] | 36
COc1ccc(NC(=O)c2cc(-c3ccnc4ccccc34)n(-c3cccc(C)n3)n2)cc1F [Example 215, N-(3-fluoro-4-methoxyphenyl)-1-(6-methylpyridin-2-yl)-5-(quinolin-4-yl)-1H-pyrazole-3-carboxyamide] | 91
COc1ccc(NC(=O)c2cc(-c3ccnc4ccccc34)n(-c3cccc(C)n3)n2)c(F)c1 [Example 216, N-(2-fluoro-4-methoxyphenyl)-1-(6-methylpyridin-2-yl)-5-(quinolin-4-yl)-1H-pyrazole-3-carboxyamide] | ~100
COCCOc1ccc(NC(=O)c2cc(-c3ccnc4ccccc34)n(-c3cccc(C)n3)n2)cc1 [Example 217, N-(4-(2-methoxyethoxy)phenyl)-1-(6-methylpyridin-2-yl)-5-(quinolin-4-yl)-1H-pyrazole-3-carboxyamide] | 18
Cc1cccc(-n2nc(C(=O)Nc3ccc(S(=O)(=O)C4CC4)cc3)cc2-c2ccc3nonc3c2)n1 [Example 218, 5-(benzo[c][1,2,5]oxadiazol-5-yl)-N-(4-(cyclopropylsulfonyl)phenyl)-1-(6-methylpyridin-2-yl)-1H-pyrazole-3-carboxyamide] | 10 to 100
Cc1cccc(-n2nc(C(=O)Nc3ccccc3F)cc2-c2ccc3ncoc3c2)n1 [Example 219, 5-(benzo[d]oxazol-6-yl)-N-(2-fluorophenyl)-1-(6-methylpyridin-2-yl)-1H-pyrazole-3-carboxyamide] | 27
Cc1cccc(-n2nc(C(=O)Nc3cn[nH]c3)cc2-c2ccc(F)c(-c3cnn(CCO)c3)c2)n1 [Example 222, N-(1H-pyrazol-4-yl)-5-(4-fluoro-3-(1-(2-hydroxyethyl)-1H-pyrazol-4-yl)phenyl)-1-(6-methylpyridin-2-yl)-1H-pyrazole-3-carboxyamide] | 1
Cc1cccc(-n2nc(C(=O)Nc3cnn(C)c3)cc2-c2ccc(F)c(-c3cnn(CCO)c3)c2)n1 [Example 223, N-(1-methyl-1H-pyrazol-4-yl)-5-(4-fluoro-3-(1-(2-hydroxyethyl)-1H-pyrazol-4-yl)phenyl)-1-(6-methylpyridin-2-yl)-1H-pyrazole-3-carboxyamide] | 2.8
Cc1cccc(-n2nc(C(=O)Nc3cnn(S(C)(=O)=O)c3)cc2-c2ccc(F)c(-c3cnn(CCO)c3)c2)n1 [Example 224, N-(1-(methylsulfonyl)-1H-pyrazol-4-yl)-5-(4-fluoro-3-(1-(2-hydroxyethyl)-1H-pyrazol-4-yl)phenyl)-1-(6-methylpyridin-2-yl)-1H-pyrazole-3-carboxyamide] | 3.1
Cc1cccc(-n2nc(C(=O)Nc3ccc(S(C)(=O)=O)cc3)cc2-c2ccc(F)c(-c3cnn(CCO)c3)c2)n1 [Example 226, N-(4-(methylsulfonyl)phenyl)-5-(4-fluoro-3-(1-(2-hydroxyethyl)-1H-pyrazol-4-yl)phenyl)-1-(6-methylpyridin-2-yl)-1H-pyrazole-3-carboxyamide] | 4.7
Cc1cccc(-n2nc(C(=O)Nc3ccccc3F)cc2-c2cc3cnccc3s2)c1 [Example 227, N-(2-fluorophenyl)-5-(thieno[3,2,c]pyridin-2-yl)-1-(m-tolyl)-1H-pyrazole-3-carboxyamide] | ~100

Further lines, results first:

IC50 [nM] | SMILES
10 to 100 | Cc1cccc(-n2nc(C(=O)NCc3cccc(Cl)c3)cc2-c2ccc3nccnc3c2)n1 [Example 200, N-(3-chlorobenzyl)-1-(6-methylpyridin-2-yl)-5-(quinoxalin-6-yl)-1H-pyrazole-3-carboxyamide]
> 1000 | Cc1cccc(-n2nc(C(=O)Nc3ccccc3F)cc2-c2ccc3nccnc3c2)c1 [Example 202, N-(2-fluorophenyl)-5-(quinoxalin-6-yl)-1-(m-tolyl)-1H-pyrazole-3-carboxyamide]
> 100 | COc1ccc(NC(=O)c2cc(-c3ccc4nccnc4c3)n(-c3cc(Cl)ccc3F)n2)cc1 [Example 203, 1-(5-chloro-2-fluorophenyl)-N-(4-methoxyphenyl)-5-(quinoxalin-6-yl)-1H-pyrazole-3-carboxyamide]
> 100 | COc1ccc(NC(=O)c2cc(-c3ccc4nccnc4c3)n(-c3cccc(C(F)(F)F)n3)n2)cc1 [Example 205]
> 100 | Cc1cccc(-n2nc(C(=O)Nc3ccccc3F)cc2-c2ccnc3ccccc23)n1 [Example 209, N-(2-fluorophenyl)-1-(6-methylpyridin-2-yl)-5-(quinolin-4-yl)-1H-pyrazole-3-carboxyamide]
10 to 100 | COc1ccc(NC(=O)c2cc(-c3ccnc4ccccc34)n(-c3cccc(C)n3)n2)cc1 [Example 210, N-(4-methoxyphenyl)-1-(6-methylpyridin-2-yl)-5-(quinolin-4-yl)-1H-pyrazole-3-carboxyamide]
23 | Cc1cccc(-n2nc(C(=O)Nc3ccc(Cl)nc3)cc2-c2ccnc3ccccc23)n1 [Example 213, N-(6-chloropyridin-3-yl)-1-(6-methylpyridin-2-yl)-5-(quinolin-4-yl)-1H-pyrazole-3-carboxyamide]
30 | Cc1cccc(-n2nc(C(=O)Nc3ccc4c(c3)OCO4)cc2-c2ccnc3ccccc23)n1 [Example 214, N-(benzo[d][1,3]dioxol-5-yl)-1-(6-methylpyridin-2-yl)-5-(quinolin-4-yl)-1H-pyrazole-3-carboxyamide]
3.2 | Cc1cccc(-n2nc(C(=O)Nc3ccc(S(=O)(=O)C4CC4)cc3)cc2-c2ccc3ncoc3c2)n1 [Example 220]
4.3 | Cc1cccc(-n2nc(C(=O)NC3CC3)cc2-c2ccc(F)c(-c3cnn(CCO)c3)c2)n1 [Example 221, N-cyclopropyl-5-(4-fluoro-3-(1-(2-hydroxyethyl)-1H-pyrazol-4-yl)phenyl)-1-(6-methylpyridin-2-yl)-1H-pyrazole-3-carboxyamide]
33 | Cc1cccc(-n2nc(C(=O)Nc3ccc(Cl)cc3)cc2-c2ccc(F)c(-c3cnn(CCO)c3)c2)n1 [Example 225, N-(4-chlorophenyl)-5-(4-fluoro-3-(1-(2-hydroxyethyl)-1H-pyrazol-4-yl)phenyl)-1-(6-methylpyridin-2-yl)-1H-pyrazole-3-carboxyamide]
